Assay [1] has as its target T1, Furin (108-574-Tev-Flag-His) enzyme (Homo sapiens, UniProt P09958).
T1 construct: Furin (108-574-Tev-Flag-His) enzyme was expressed and purified from CHO cells; TEV cleavage site (C); FLAG (C); His (C); made in house; host or cells: CHO cells
As to the kind of experiment: Furin enzyme assay. The format is biochemical. To be noted: for IC50: read-out: furin enzyme pIC50 (converted). Summed up:
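Compounds ran as 11-point threefold dilutions (0.00017–10 μM final) against 40 pM furin, purified from CHO cells, for 2 h at room temperature. Buffer: 100 mM HEPES pH7.5 with 1 mM CaCl2 and 0.005% Triton X-100. Envision readout. Four-parameter curve gives pXC50.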

Assay [2] addresses T2, furin (endogenous protease) in U20S cells (Homo sapiens, UniProt P09958).
T2 construct: the endogenous protease cleaves GFP; endogenous in cells; host or cells: U2OS cells transduced with a BacMam reporter
As to the kind of experiment: Furin cell-based assay (image-based, Golgi-targeted GFP with BMP10 furin/PCSK cleavage site).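 Note: Read-out is mean GFP fluorescence of Golgi puncta per cell by high-content imaging, retained when furin inhibited, over an eleven-point 0.00017–10 µM series, four-parameter fit.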 Conditions: 24-hour incubation, read-out: furin golgi cell pXC50 (converted).

The values below come from US11773078B2, “Furin inhibitors” (Glaxosmithkline Intellectual Property Development Limited, priority 2018, dated 2023).

T1 sequence (P09958 108-574): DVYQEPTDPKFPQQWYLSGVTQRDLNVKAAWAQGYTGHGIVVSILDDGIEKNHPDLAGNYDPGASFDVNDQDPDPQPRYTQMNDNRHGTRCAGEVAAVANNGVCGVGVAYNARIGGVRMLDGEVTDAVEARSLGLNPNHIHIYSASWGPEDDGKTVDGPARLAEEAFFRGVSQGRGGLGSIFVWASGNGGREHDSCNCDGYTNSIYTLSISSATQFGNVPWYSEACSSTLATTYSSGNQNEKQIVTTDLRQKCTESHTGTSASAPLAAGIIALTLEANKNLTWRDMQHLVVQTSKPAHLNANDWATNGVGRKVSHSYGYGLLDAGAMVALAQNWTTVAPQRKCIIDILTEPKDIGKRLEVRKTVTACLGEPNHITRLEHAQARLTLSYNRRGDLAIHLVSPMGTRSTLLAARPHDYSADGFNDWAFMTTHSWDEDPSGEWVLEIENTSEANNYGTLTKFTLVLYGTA
T2 sequence (P09958 108-794): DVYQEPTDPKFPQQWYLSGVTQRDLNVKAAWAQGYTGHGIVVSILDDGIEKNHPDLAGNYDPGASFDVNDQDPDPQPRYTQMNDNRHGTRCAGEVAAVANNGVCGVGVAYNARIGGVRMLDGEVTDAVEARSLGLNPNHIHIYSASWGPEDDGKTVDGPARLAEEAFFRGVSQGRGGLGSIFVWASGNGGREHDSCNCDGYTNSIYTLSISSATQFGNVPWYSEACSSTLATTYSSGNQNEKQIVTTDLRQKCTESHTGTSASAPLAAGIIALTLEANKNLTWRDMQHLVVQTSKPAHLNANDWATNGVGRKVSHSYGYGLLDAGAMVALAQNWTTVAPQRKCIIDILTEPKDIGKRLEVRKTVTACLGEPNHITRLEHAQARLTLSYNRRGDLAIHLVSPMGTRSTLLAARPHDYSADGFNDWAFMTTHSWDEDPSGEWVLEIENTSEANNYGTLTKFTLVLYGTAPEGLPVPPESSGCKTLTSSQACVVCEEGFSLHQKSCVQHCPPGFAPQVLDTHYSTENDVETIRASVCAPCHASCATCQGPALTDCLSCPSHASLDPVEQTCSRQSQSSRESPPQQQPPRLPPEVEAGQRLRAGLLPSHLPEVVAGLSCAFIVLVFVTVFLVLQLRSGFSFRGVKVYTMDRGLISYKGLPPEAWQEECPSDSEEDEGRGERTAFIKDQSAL

As to `C[N+](C)([O-])CCC1CCN(Cc2cc(Oc3ccc(N4CCNCC4)nc3)nc(-c3cc(Cl)cc(Cl)c3)c2)CC1` [Example 120, 2-(1-((2-(3,5-dichlorophenyl)-6-((6-(piperazin-1-yl)pyridin-3-yl)oxy)pyridin-4-yl)methyl)piperidin-4-yl)-N,N-dimethylethanamine oxide], the IC50 in assay [1] is 2 nM. In addition, in assay [2], the EC50 is 15.8 nM.

Turning to `CCC(=O)NCC1CCN(Cc2cc(Oc3cnc(N4CCN(CCC(C)C(=O)O)CC4)nc3)nc(-c3cc(Cl)cc(Cl)c3)c2)CC1` (centres unmarked) [Example 59, 4-(4-(5-((6-(3,5-dichlorophenyl)-4-((4-(propionamidomethyl)piperidin-1-yl)methyl)pyridin-2-yl)oxy)pyrimidin-2-yl)piperazin-1-yl)-2-methylbutanoic acid], the “furin enzyme pIC50” value in assay [1] turned out to be 8.9. For the same compound, the EC50 in assay [2] was 6.31 nM.

As for `CC(=O)NCC1CCN(Cc2cc(Oc3ccc(N4CCNC(CO)C4)nc3)nc(-c3cc(Cl)cc(Cl)c3)c2)CC1` (centres unmarked) [Example 195, N-((1-((2-(3,5-dichlorophenyl)-6-((6-(3-(hydroxymethyl)piperazin-1-yl)pyridin-3-yl)oxy)pyridin-4-yl)methyl)piperidin-4-yl)methyl)acetamide], the “furin enzyme pIC50” value in assay [1] is on record as 9.2. Besides, in assay [2], the EC50 is 1 nM.

As for `CNC(=O)OCC1CCN(Cc2cc(Oc3cnc(N4CCN(C)CC4)nc3)nc(-c3cc(Cl)cc(Cl)c3)c2)CC1` [Example 66, (1-((2-(3,5-dichlorophenyl)-6-((2-(4-methylpiperazin-1-yl)pyrimidin-5-yl)oxy)pyridin-4-yl)methyl)piperidin-4-yl)methyl methylcarbamate], the IC50 in assay [1] was 1.58 nM. In addition, the EC50 in assay [2] is 7.94 nM.

`O=C(O)CC1CCN(Cc2cc(Oc3ccc(N4CCCNCC4)nc3)nc(-c3cc(Cl)cc(Cl)c3)c2)CC1` [Example 166, 2-(1-((2-((6-(1,4-Diazepan-1-yl)pyridin-3-yl)oxy)-6-(3,5-dichlorophenyl)pyridin-4-yl)methyl)piperidin-4-yl)acetic acid]: the “furin enzyme pIC50” value in assay [1] was 8.5. Also, the EC50 in assay [2] was 63.1 nM.

For `CC(=O)NCC1CCN(Cc2cc(Oc3cnc(N4CCN(CCC(N)=O)CC4)cn3)nc(-c3cc(Cl)cc(Cl)c3)c2)CC1` [Example 391, 3-(4-(5-((4-((4-(acetamidomethyl)piperidin-1-yl)methyl)-6-(3,5-dichlorophenyl)pyridin-2-yl)oxy)pyrazin-2-yl)piperazin-1-yl)propanamide], in assay [1], the “furin enzyme pIC50” value is 8.7. The EC50 in assay [2] is 6.31 nM.

For the compound `COC(=O)NC(=O)NCC1CCN(Cc2cc(Oc3cnc(N4CCN(C)CC4)nc3)nc(-c3cc(Cl)cc(Cl)c3)c2)CC1` [Example 325], the “furin enzyme pIC50” value in assay [1] is listed as 8.3. Besides, the EC50 in assay [2] was 6.31 nM.

Turning to `CC(=O)NCC1CCN(Cc2cc(Oc3ccc(N4CCN(CCP(=O)(O)O)CC4)nc3)nc(-c3cc(Cl)cc(Cl)c3)c2)CC1` [Example 30, (2-(4-(5-((4-((4-(Acetamidomethyl)piperidin-1-yl)methyl)-6-(3,5-dichlorophenyl)pyridin-2-yl)oxy)pyridin-2-yl)piperazin-1-yl)ethyl)phosphonic acid], the “furin enzyme pIC50” value in assay [1] came to 9.1. In assay [2], the EC50 was 501 nM.

Take `CNC(=O)NCC1CCN(Cc2cc(Oc3cnc(N4CCN(CCC(=O)O)CC4)c(F)c3)nc(-c3cc(Cl)cc(Cl)c3)c2)CC1` [Example 270, 3-(4-(5-((6-(3,5-dichlorophenyl)-4-((4-((3-methylureido)methyl)piperidin-1-yl)methyl)pyridin-2-yl)oxy)-3-fluoropyridin-2-yl)piperazin-1-yl)propanoic acid]: the “furin enzyme pIC50” value in assay [1] is 9.5. Also, the EC50 in assay [2] was 25.1 nM.

As to `CNC(=O)NCC1CCN(Cc2cc(Oc3cnc(N4CCN(C(C)CCS(C)(=O)=O)CC4)nc3)nc(-c3cc(F)cc(Cl)c3)c2)CC1` (centres unmarked) [Example 373, 1-((1-((2-(3-chloro-5-fluorophenyl)-6-((2-(4-(4-(methylsulfonyl)butan-2-yl)piperazin-1-yl)pyrimidin-5-yl)oxy)pyridin-4-yl)methyl)piperidin-4-yl)methyl)-3-methylurea], in assay [1], the “furin enzyme pIC50” value is 8.9. In assay [2], the EC50 is 5.01 nM.

Consider `COC(=O)NCC1CCN(Cc2cc(Oc3cnc(N4CCN(CCCS(C)(=O)=O)CC4)nc3)nc(-c3cc(Cl)cc(Cl)c3)c2)CC1` [Example 223, methyl ((1-((2-(3,5-dichlorophenyl)-6-((2-(4-(3-(methylsulfonyl)propyl)piperazin-1-yl)pyrimidin-5-yl)oxy)pyridin-4-yl)methyl)piperidin-4-yl)methyl)carbamate], for which, in assay [1], the “furin enzyme pIC50” value was 9.8. Besides, the EC50 in assay [2] was 5.01 nM.

On to `CC(CO)N1CCN(c2ncc(Oc3cc(CN4CCC(CC(=O)O)CC4)cc(-c4cc(Cl)cc(Cl)c4)n3)cn2)CC1` (centres unmarked) [Example 21, 2-(1-((2-(3,5-dichlorophenyl)-6-((2-(4-(1-hydroxypropan-2-yl)piperazin-1-yl)pyrimidin-5-yl)oxy)pyridin-4-yl)methyl)piperidin-4-yl)acetic acid], for which the “furin enzyme pIC50” value in assay [1] is 9.9. In addition, the EC50 in assay [2] was 6.31 nM.

In the case of `CN1CCN(c2ccc(Oc3cc(CN4CC[C@@H]5[C@H](CC4)[C@H]5C(=O)O)cc(-c4cc(Cl)cc(Cl)c4)n3)cn2)CC1` [Example 136, (1R,7S,8r)-4-((2-(3,5-dichlorophenyl)-6-((6-(4-methylpiperazin-1-yl)pyridin-3-yl)oxy)pyridin-4-yl)methyl)-4-azabicyclo[5.1.0]octane-8-carboxylic acid], the “furin enzyme pIC50” value in assay [1] stood at 9.8. In addition, the EC50 in assay [2] was 15.8 nM.

For `CC(CCN1CCN(c2ncc(Oc3cc(CN4CCC(CCO)CC4)cc(-c4cc(Cl)cc(Cl)c4)n3)cn2)CC1)C(=O)O` (centres unmarked) [Example 57, 4-(4-(5-((6-(3,5-dichlorophenyl)-4-((4-(2-hydroxyethyl)piperidin-1-yl)methyl)pyridin-2-yl)oxy)pyrimidin-2-yl)piperazin-1-yl)-2-methylbutanoic acid], the “furin enzyme pIC50” value in assay [1] is given as 10.3. Further, in assay [2], the EC50 was 10 nM.

Regarding `CN1C[C@@H]2C[C@H]1CN2c1ccc(Oc2cc(CN3CCC(CC(=O)O)CC3)cc(-c3cc(Cl)cc(Cl)c3)n2)nn1` [Example 357, 2-(1-((2-(3,5-dichlorophenyl)-6-((6-((1S,4S)-5-methyl-2,5-diazabicyclo[2.2.1]heptan-2-yl)pyridazin-3-yl)oxy)pyridin-4-yl)methyl)piperidin-4-yl)acetic acid], in assay [1], the “furin enzyme pIC50” value stood at 8.5. Further, the EC50 in assay [2] is 100 nM.

Turning to `CC(=O)NCC1CCN(Cc2cc(Oc3ccc(N4CCC5(CCNC5)C4)nc3)nc(-c3cc(Cl)cc(Cl)c3)c2)CC1` (centres unmarked) [Example 199, N-((1-((2-((6-(2,7-diazaspiro[4.4]nonan-2-yl)pyridin-3-yl)oxy)-6-(3,5-dichlorophenyl)pyridin-4-yl)methyl)piperidin-4-yl)methyl)acetamide], the “furin enzyme pIC50” value in assay [1] came out at 9.2. Moreover, in assay [2], the EC50 was 5.01 nM.

As to `CC(=O)NCC1CCN(Cc2cc(Oc3cnc(N4CCN(CCC(N)=O)CC4)nc3)nc(-c3cc(F)c(F)c(Cl)c3)c2)CC1` [Example 273, 3-(4-(5-((4-((4-(acetamidomethyl)piperidin-1-yl)methyl)-6-(3-chloro-4,5-difluorophenyl)pyridin-2-yl)oxy)pyrimidin-2-yl)piperazin-1-yl)propanamide], in assay [1], the “furin enzyme pIC50” value turned out to be 8.2. For the same compound, the EC50 in assay [2] was 31.6 nM.

Consider `CNC(=O)OCC1CCN(Cc2cc(Oc3cnc(N4CCN(CCO)CC4)nc3)nc(-c3cc(Cl)cc(Cl)c3)c2)CC1` [Example 307, (1-((2-(3,5-dichlorophenyl)-6-((2-(4-(2-hydroxyethyl)piperazin-1-yl)pyrimidin-5-yl)oxy)pyridin-4-yl)methyl)piperidin-4-yl)methyl methylcarbamate], for which the “furin enzyme pIC50” value in assay [1] was 9.4. For the same compound, the EC50 in assay [2] is 2 nM.

On to `CC(=O)NCC1CCN(Cc2cc(Oc3cnc(N4CCN(CCCS(C)(=O)=O)CC4)nc3)nc(-c3cc(Cl)cc(Cl)c3)c2)CC1` [Example 259, N-((1-((2-(3,5-dichlorophenyl)-6-((2-(4-(3-(methylsulfonyl)propyl)piperazin-1-yl)pyrimidin-5-yl)oxy)pyridin-4-yl)methyl)piperidin-4-yl)methyl)acetamide], for which, in assay [1], the “furin enzyme pIC50” value came to 9.8. Moreover, in assay [2], the EC50 was 1.58 nM.

As for `CC(=O)NCC1CCN(Cc2cc(Oc3ccc(N4C[C@H](CN)[C@@H](O)C4)nc3)nc(-c3cc(Cl)cc(Cl)c3)c2)CC1` (relative stereo) [Example 184, N-((1-((2-((6-(trans-3-(Aminomethyl)-4-hydroxypyrrolidin-1-yl)pyridin-3-yl)oxy)-6-(3,5-dichlorophenyl)pyridin-4-yl)methyl)piperidin-4-yl)methyl)acetamide], the IC50 in assay [1] was 0.251 nM. The EC50 in assay [2] is 15.8 nM.

In the case of `CC(=O)NCC1CCN(Cc2cc(Oc3cnc(N4CCN(CCC5(C(=O)O)CC5)CC4)nc3)nc(-c3cc(Cl)cc(Cl)c3)c2)CC1` [Example 173, 1-(2-(4-(5-((4-((4-(acetamidomethyl)piperidin-1-yl)methyl)-6-(3,5-dichlorophenyl)pyridin-2-yl)oxy)pyrimidin-2-yl)piperazin-1-yl)ethyl)cyclopropanecarboxylic acid], in assay [1], the IC50 is 0.398 nM. Moreover, the EC50 in assay [2] was 1.26 nM.

Regarding `CC(=O)NCC1CCN(Cc2cc(Oc3cnc(N4CCC(N)CC4)nc3)nc(-c3cc(Cl)cc(Cl)c3)c2)CC1` [Example 119, N-((1-((2-((2-(4-aminopiperidin-1-yl)pyrimidin-5-yl)oxy)-6-(3,5-dichlorophenyl)pyridin-4-yl)methyl)piperidin-4-yl)methyl)acetamide], the “furin enzyme pIC50” value in assay [1] stood at 9.3. Moreover, the EC50 in assay [2] is 25.1 nM.
